Measurements reported in patent US20260256792A1, “TREATMENT OF CHRONIC SPONTANEOUS URTICARIA BY ADMINISTERING (R)-2-[3-[4-AMINO-3-(2-FLUORO-4-PHENOXY-PHENYL)PYRAZOLO[3,4-D]PYRIMIDIN-1-YL]PIPERIDINE-1-CARBONYL]-4-METHYL-4-[4-(OXETAN-3-YL)PIPERAZIN-1-YL]PENT-2-ENENITRILE” (priority 2023, published 2026).

Legend:
[1] = test system: 251 kinases sharing a common cysteine in their active site; details: 1 μM; cited from earlier work
IgG anti-FcεRI = test: Phase 2 CSU study: serum IgG anti-FcεRI ELISA; format: in vivo, human; details: for IgG anti-FcεRI (arbitrary unit) Median Percent Change from Baseline: Baseline to Week 12
Text: (§1) Blood samples were also collected through Week 12 to evaluate the change in baseline in various biomarkers, including sMRGPRX2, IgG anti-TPO, IgG anti-FCεRI, IgG anti-IgE, and IL-31.
(§2) Collection of biological samples for other biomarker research was also part of this study. The following samples for biomarker research were required and were to be collected from all participants in this study: • Serum and plasma samples for soluble biomarkers and cellular tests. Analytes included IgG anti-IgE, IgG anti-FcεRI, IgG anti-TPO, IgE anti-TPO, IL-31, and sMRGPRX2. • Blood samples for immune cell phenotyping, including measurement of eosinophil levels • Blood samples for BTK occupancy in peripheral blood mononuclear cells (PBMCs) at selected sites
(§3) For each patient, serum samples were to be collected on each of four visits (Visits 2, 4, 6, and end of study/follow up).
(§4) If dilutions were to be prepared, the same dilutions were to be prepared twice from each sample. These were to be measured on different plates. Each plate was to include a standard curve. Samples were to be measured twice for all biomarkers except for sMRGPRX2. Mean measurement values were to be calculated, and the concentration of the biomarker was to be calculated using GraphPad Prism 9 software (4-PL model).
For the IgG anti-FcεRI ELISA, MaxiSorp plates were coated overnight with […] recombinant human FcεRIα and blocked with 10% protein-free blocking buffer diluted in assay buffer. Following the addition of serum samples (1:100 in assay buffer) or the hIgG anti-FcεRI standard (1:2 serial dilution in assay buffer), the plates were incubated at room temperature. Next, the anti-IgG-HRP detection antibody was added to all samples. Development was performed using ECL-prime solution and chemiluminescent signal intensity was measured on the Victor5 multimode plate reader.
(§5) Assay data ranges are described below. • sMRGPRX2: 0.1 ng/mL-10 ng/mL • IgG anti-FCεRI: 0-10000 arbitrary units (AU) • IgG anti-TPO: 0-3000 international units (IU) • IgE anti-TPO: 0-500 AU • IgG anti-IgE: 0-100000 AU • IL-31: 0.1 ng/mL-20 ng/mL

total serum IgE or IgG = test: Phase 2 CSU study: total serum immunoglobulins (IgE, IgG, IgM); details: for Total IgE (IU/mL) Median Percent Change from Baseline / Total IgG (g/L) Median Percent Change from Baseline: Baseline to Week 12
Experimental: Changes in disease-relevant biomarkers were assessed over the course of the 12-Week double-blind phase (see FIG. 40). Biomarkers included sMRGPRX2, IgE anti-TPO, IgG anti-FCεRI, IL-31, IgM, IgE, IgG, IgG anti-IgE, and white blood cell levels.

[2] = test system: mouse model of immune thrombocytopenia; details: mouse ITP model; cited from earlier work
[3] = test system: patients with moderate-to-severe CSU; test: Phase 2 CSU study: safety (TEAEs, SAEs, AESIs), double-blind period
sMRGPRX2 = test: Phase 2 CSU study: serum sMRGPRX2 ELISA; format: in vivo, human; details: for SMRGPRX2 (ng/mL) Median Percent Change from Baseline: Baseline to Week 12
Text: as §1, §2, §3
Serum analyte testing was to be performed using the following commercial assays: • sMRGPRX2 ELISA (Cat. No. #MBS933336; MyBioSource) • IL-31 HTRF assay (Cat. No. #62HIL31PEG; Cisbio/PerkinElmer) • IgG anti-TPO ELISA (Cat. No. #ORG503; Orgentec Diagnostica GmbH)
as §4
For the sMRGPRX2 ELISA, measurements were performed according to the manufacturer's instructions. Single measurements were obtained for all samples.
as §5

eosinophils = test: Phase 2 CSU study: immune cell phenotyping, eosinophil levels; format: in vivo, human; details: for Eosinophils (10^9/L) Median Percent Change from Baseline: Baseline to Week 12
Text: as §2

[4] = 400 mg BID (N = 41), double-blind period, safety population

Question: For `CC(C)(C=C(C#N)C(=O)N1CCC[C@@H](n2nc(-c3ccc(Oc4ccccc4)cc3F)c3c(N)ncnc32)C1)N1CCN(C2COC2)CC1` [rilzabrutinib, (R)-2-[3-[4-amino-3-(2-fluoro-4-phenoxy-phenyl)pyrazolo[3,4-d]pyrimidin-1-yl]piperidine-1-carbonyl]-4-methyl-4-[4-(oxetan-3-yl)piperazin-1-yl]pent-2-enenitrile], which “number of kinases inhibited (>90% inhibition) of 251 kinases” value [1] is on record?
Answer: The value was 6.

Question: What about the “reduction from baseline for IgG anti-FCFRI” value (IgG anti-FcεRI; 400 mg TID, Week 12) of the same compound?
Answer: Its value is 38.7%.

Question: And the “IgG anti-FcεRI (arbitrary unit) Median Percent Change from Baseline” value (IgG anti-FcεRI; 400 mg BID)?
Answer: Its value is −39.0%.

Question: What about the “IgG anti-FcεRI (arbitrary unit) Median Percent Change from Baseline” value (IgG anti-FcεRI; 400 mg QPM) of the same compound?
Answer: The value was −20.4%.

Question: What about the “IgG anti-FcεRI (arbitrary unit) Median Percent Change from Baseline” value (IgG anti-FcεRI; 400 mg TID) of the same compound?
Answer: The value was −38.7%.

Question: What about the “change in total serum IgE or IgG levels” value (total serum IgE or IgG; 12-week double-blind phase) of the same compound?
Answer: The value was “not associated with a change”.

Question: What about the “Total IgE (IU/mL) Median Percent Change from Baseline” value (total serum IgE or IgG; 400 mg BID) of the same compound?
Answer: Its value is 3.9%.

Question: What about the “Total IgG (g/L) Median Percent Change from Baseline” value (total serum IgE or IgG; 400 mg BID) of the same compound?
Answer: Its value is 0.96%.

Question: What about the “Total IgE (IU/mL) Median Percent Change from Baseline” value (total serum IgE or IgG; 400 mg QPM) of the same compound?
Answer: The value was 3.4%.

Question: What about the “Total IgG (g/L) Median Percent Change from Baseline” value (total serum IgE or IgG; 400 mg QPM) of the same compound?
Answer: The value was −1.99%.

Question: And the “Total IgE (IU/mL) Median Percent Change from Baseline” value (total serum IgE or IgG; 400 mg TID)?
Answer: The value was 4.1%.

Question: And the “Total IgG (g/L) Median Percent Change from Baseline” value (total serum IgE or IgG; 400 mg TID)?
Answer: Its value is 0.24%.

Question: What about the platelet loss [2] of the same compound?
Answer: Its platelet loss is “reduction”.

Question: What about the “Participants with any TEAE” value [3, 4] of the same compound?
Answer: The value was 30 (73.2) n (%).

Question: What about the “Participants with any TEAE leading to death” value (“Participants … to death” for short) [3, 4] of the same compound?
Answer: Its value is 0 n (%).

Question: And the “Participants … to death” value ([3]; 400 mg QPM (N = 38), double-blind period, safety population)?
Answer: Its value is 0 n (%).

Question: What about the “Participants … to death” value ([3]; 400 mg TID (N = 41), double-blind period, safety population) of the same compound?
Answer: Its value is 0 n (%).

Question: What about the “patients with ALT increases>3×ULN (AESI)” value ([3]; BID cohort) of the same compound?
Answer: Its value is 1 patient.

Question: What about the “patients with ALT increases>3×ULN (AESI)” value ([3]; QPM cohort) of the same compound?
Answer: The value was 2 patients.

Question: And the “patients with ALT increases>3×ULN (AESI)” value ([3]; TID cohort)?
Answer: Its value is 1 patient.

Question: And the “drug-induced liver injuries (including Hy's law)” value ([3]; double-blind period)?
Answer: Its value is “no drug-induced liver injuries”.

Question: And the “severe/serious infections or opportunistic infections” value ([3]; double-blind period)?
Answer: Its value is “no severe/serious infections or opportunistic infections”.

Question: And the deaths ([3]; throughout the study)?
Answer: Its deaths is “no deaths”.

Question: What about the “treatment-emergent SAEs” value ([3]; throughout the study, same incidence across all rilzabrutinib dosing groups) of the same compound?
Answer: Its value is 3.

Question: What about the “reduction from baseline median sMRGPRX2 levels” value (sMRGPRX2; 400 mg TID, Week 12) of the same compound?
Answer: The value was 22.8%.

Question: And the “SMRGPRX2 (ng/mL) Median Percent Change from Baseline” value (sMRGPRX2; 400 mg BID)?
Answer: Its value is −29.3%.

Question: And the “SMRGPRX2 (ng/mL) Median Percent Change from Baseline” value (sMRGPRX2; 400 mg QPM)?
Answer: The value was −31.1%.

Question: And the “SMRGPRX2 (ng/mL) Median Percent Change from Baseline” value (sMRGPRX2; 400 mg TID)?
Answer: The value was −22.8%.

Question: And the “reduction in eosinophil levels” value (eosinophils; 400 mg TID, Week 12)?
Answer: Its value is 29.0%.

Question: What about the “Eosinophils (10^9/L) Median Percent Change from Baseline” value (eosinophils; 400 mg BID) of the same compound?
Answer: The value was −11.8%.

Question: What about the “Eosinophils (10^9/L) Median Percent Change from Baseline” value (eosinophils; 400 mg QPM) of the same compound?
Answer: Its value is 7.7%.

Question: What about the “Eosinophils (10^9/L) Median Percent Change from Baseline” value (eosinophils; 400 mg TID) of the same compound?
Answer: The value was −29.0%.
